# Results as given in patent US9510598B2, “Nitrogen-containing heterocyclic compounds for plant disease control” (BAYER CROPSCIENCE AG, priority 2012, dated 2016).
# Assay type: physicochemical
# Details: HPLC on reversed phase columns, method [a]: pH 2.7, 0.1% formic acid in water / acetonitrile, linear gradient 10% to 95% acetonitrile
row,SMILES,log P
1,CC(C)NC(=O)C1(C(C)O)CC(c2ccc3ncc(Br)cc3c2)=NO1 (centres unmarked) [compound 552],2.23[a]
2,COC1(C(=O)NC2CCC2)CC(c2cc(Cl)c3ncc(Br)cc3c2)=NO1 (centres unmarked) [compound 576],3.33[a]
3,CC1(C(=O)NCCF)CC(c2ccc3ncc(Br)cc3c2)=NO1 (centres unmarked) [compound 641],2.30[a]
4,CC(C)NC(=O)C1(C(F)F)CC(c2ccc3ncc(I)cc3c2)=NO1 (centres unmarked) [compound 620],3.17[a]
5,COc1ccnc(CNC(=O)C2(C)CC(c3ccc4ncc(Br)cc4c3)=NO2)c1 (centres unmarked) [compound 664],1.49[a]
6,COC1(C(=O)NCc2cnc(C)cn2)CC(c2cc(Cl)c3ncc(Br)cc3c2)=NO1 (centres unmarked) [compound 575],2.62[a]
7,C#Cc1cnc2c(C)cc(C3=NOC(OC)(C(=O)NCc4cnc(C)cn4)C3)cc2c1 (centres unmarked) [compound 611],2.46[a]
8,C#Cc1cnc2ccc(C3=NOC(C)(C(=O)NC4CCCCC4)C3)cc2c1 (centres unmarked) [compound 236],3.25^[a]
9,COc1nc2ccc(C3=NOC(C)(C(=O)NC(C)C)C3)cc2cc1Br (centres unmarked) [compound 275],3.54[a]
10,C#Cc1cnc2c(Cl)cc(C3=NOC(OC)(C(=O)NCc4cnc(C)cn4)C3)cc2c1 (centres unmarked) [compound 591],2.37[a]
11,C#Cc1cnc2ccc(C3=NOC(C)(C(=O)NCc4cn(C5CC5)nc4C)C3)cc2c1 (centres unmarked) [compound 668],2.26[a]
12,C#Cc1cnc2ccc(C3=NOC(C)(C(=O)NCc4cn(CCCC)nc4C)C3)cc2c1 (centres unmarked) [compound 656],2.64[a]
13,C#Cc1cnc2c(C)cc(C3=NOC(C)(C(=O)NCc4cn(CC)nc4C)C3)cc2c1 (centres unmarked) [compound 581],2.62[a]
14,CCCSc1cnc2ccc(C3=NOC(C)(C(=O)NC(C)C)C3)cc2c1 (centres unmarked) [compound 254],3.26^[a]
15,CC1(C(=O)NCC2CCCCC2)CC(c2ccc3ncc(Br)cc3c2)=NO1 (centres unmarked) [compound 249],3.96^[a]
16,C#CCOc1coc(CNC(=O)C2(C)CC(c3ccc4ncc(Br)cc4c3)=NO2)cc1=O (centres unmarked) [compound 251],2.2^[a]
17,CC1(C(=O)NC(C#N)c2ccccc2)CC(c2ccc3ncc(Br)cc3c2)=NO1 (centres unmarked) [compound 356],3.25[a]
18,CC(C)NC(=O)C1(C)ON=C(c2ccc3ncc(Br)cc3c2)C1C (centres unmarked) [compound 274],3.04[a]
19,CC1(C(=O)NC2CC2)CC(c2ccc3ncc(Br)cc3c2)=NO1 (centres unmarked) [compound 317],2.40[a]
20,C#Cc1cnc2c(C)cc(C3=NOC(OC)(C(=O)NCCCOCC)C3)cc2c1 (centres unmarked) [compound 607],3.00[a]
21,C#Cc1cnc2ccc(C3=NOC(C)(C(=O)NCc4nc(C)cc(C)n4)C3)cc2c1 (centres unmarked) [compound 643],2.23[a]
22,C#CC1(C(=O)NCCCOCC)CC(c2ccc3ncc(Br)cc3c2)=NO1 (centres unmarked) [compound 627],2.94[a]
23,CON(C(=O)C1(C)CC(c2ccc3ncc(Br)cc3c2)=NO1)C(C)C (centres unmarked) [compound 651],3.59[a]

# Same assay, conditions: HPLC on reversed phase columns, method [a]: pH 2.7, 0.1% formic acid in water and acetonitrile, linear gradient 10% to 95% acetonitrile
row,SMILES,log P
1,CCc1ccc(CNC(=O)C2(C)CC(c3ccc4ncc(Br)cc4c3)=NO2)nc1 (centres unmarked) [compound 744],2.05[a]
2,CC1(C(=O)NCc2cncc(Cl)n2)CC(c2ccc3ncc(Br)cc3c2)=NO1 (centres unmarked) [compound 792],2.71[a]
3,C#Cc1cnc2ccc(C3=NOC(OC)(C(=O)NCc4cn(CC)nc4C(F)(F)F)C3)cc2c1 (racemic) [compound 820],2.80[a]
4,COc1cncc(CNC(=O)C2(C)CC(c3ccc4ncc(Br)cc4c3)=NO2)n1 (centres unmarked) [compound 794],2.53[a]
5,C#Cc1cnc2ccc(C3=NOC(C)(C(=O)NCc4ccnc(C(F)(F)F)c4)C3)cc2c1 (centres unmarked) [compound 762],2.64[a]
6,C#Cc1cnc2ccc(C3=NOC(C)(C(=O)NCc4cnn(CC(F)(F)F)c4)C3)cc2c1 (centres unmarked) [compound 772],2.34[a]
7,CC(C)(C)Oc1ncccc1CNC(=O)C1(C)CC(c2ccc3ncc(Br)cc3c2)=NO1 (racemic) [compound 819],4.46[a]
8,C#Cc1cnc2ccc(C3=NOC(C)(C(=O)NCc4ccnc(NC5CC5)c4)C3)cc2c1 (centres unmarked) [compound 809],1.45[a]
9,C#CC1(NC(=O)C2(C)CC(c3ccc4ncc(Br)cc4c3)=NO2)COC1 (centres unmarked) [compound 722],2.37[a]
10,C#Cc1cnc2ccc(C3=NOC(C)(C(=O)NCc4cncc(OC)c4)C3)cc2c1 (centres unmarked) [compound 696],1.59[a]
11,CC(NNC(=O)C1(C)CC(c2ccc3ncc(Br)cc3c2)=NO1)C1CC1 (centres unmarked) [compound 767],2.51[a]
12,CCC(C)NC(=O)C1(C)CC(c2ccc3ncc(Br)cc3c2)=NO1 (centres unmarked) [compound 742],3.37[a]
13,C#Cc1cnc2ccc(C3=NOC(C)(C(=O)Nc4cnn(CC)c4)C3)cc2c1 (centres unmarked) [compound 699],2.17[a]
14,C#Cc1cnc2ccc(C3=NOC(C)(C(=O)NCc4ccncc4C)C3)cc2c1 (centres unmarked) [compound 683],1.29[a]
15,CN(C)c1ncccc1CNC(=O)C1(C)CC(c2ccc3ncc(Br)cc3c2)=NO1 (centres unmarked) [compound 780],1.60[a]
16,C#Cc1cnc2ccc(C3=NOC(C)(C(=O)NCc4cnc(Cl)cn4)C3)cc2c1 (centres unmarked) [compound 787],2.43[a]
17,C#Cc1cnc2ccc(C3=NOC(C)(C(=O)NCc4ccc(OC)nn4)C3)cc2c1 (centres unmarked) [compound 687],2.05[a]

# Same assay, conditions: method [a]: HPLC/LC-MS on reversed phase at pH 2.7, 0.1% formic acid in water / acetonitrile, gradient 10% to 95% acetonitrile
row,SMILES,log P
1,CC(ONC(=O)C1(C)CC(c2ccc3ncc(Br)cc3c2)=NO1)C1CC1 (racemic) [compound 375],2.73[a]
2,C#Cc1cnc2ccc(C3=NOC(C)(C(=O)NC(C)CCC(C)C)C3)cc2c1 (racemic) [compound 369],3.73[a]
3,CCn1cc(CNC(=O)C2(C)CC(c3ccc4nc(C(N)=O)c(I)cc4c3)=NO2)c(C)n1 (centres unmarked) [compound 484],1.60[a]
4,C#Cc1cnc2ccc(C3=NOC(C)(C(=O)NC(COC)COC)C3)cc2c1 (centres unmarked) [compound 459],2.30[a]
5,CCCCCCC(C)NC(=O)C1(C)CC(c2ccc3ncc(Br)cc3c2)=NO1 (racemic) [compound 370],4.73[a]
6,CC1(C(=O)NC(C)(C)c2ccon2)CC(c2ccc3ncc(Br)cc3c2)=NO1 (centres unmarked) [compound 494],2.86[a]

# Same assay, conditions: method [a]: HPLC/LC-MS on reversed phase at pH 2.7, 0.1% formic acid in water / acetonitrile, linear gradient 10% to 95% acetonitrile
row,SMILES,log P
1,CC1(C(=O)NCc2ncc(C(F)(F)F)cc2Cl)CC(c2ccc3ncc(Br)cc3c2)=NO1 (centres unmarked) [compound 156],3.89^[a]
2,CC1(C(=O)NCc2ccncc2)CC(c2ccc3ncc(Br)cc3c2)=NO1 (centres unmarked) [compound 102],1.34^[a]
3,CCn1cnnc1CNC(=O)C1(C)CC(c2ccc3ncc(Br)cc3c2)=NO1 (centres unmarked) [compound 154],1.72^[a]
4,CN1C(=O)CCC1CNC(=O)C1(C)CC(c2ccc3ncc(Br)cc3c2)=NO1 (centres unmarked) [compound 124],1.85^[a]
5,Cc1ccc(CNC(=O)C2(C)CC(c3ccc4ncc(Br)cc4c3)=NO2)o1 (centres unmarked) [compound 90],3.15^[a]
6,CC1(C(=O)NCc2ccc(Cl)cc2)CC(c2ccc3ncc(Br)cc3c2)=NO1 (centres unmarked) [compound 94],3.61^[a]

# Same assay, conditions: pH 2.7
row,SMILES,chromatographic logP
1,"CCOCCCNC(=O)C1(C(F)F)CC(c2ccc3ncc(Br)cc3c2)=NO1 (centres unmarked) [Compound No. 623, 3-(3-bromoquinolin-6-yl)-5-(difluoromethyl)-N-(3-ethoxypropyl)-4,5-dihydro-1,2-oxazole-5-carboxamide]",3.06
2,CC(C)NC(=O)C1(C)CC(c2ccc3ncc(-c4cncnc4)cc3c2)=NO1 (centres unmarked) [Compound No. 258],1.79

# Same assay, conditions: reversed phase HPLC column; HPLC reversed phase, pH 2.7, 0.1% formic acid in water / acetonitrile, linear gradient 10% to 95% acetonitrile; calibration with alkan-2-ones; read-out: log P (HCOOH)
row,SMILES,chromatographic logP
1,O=Cc1ccc2ncc(Br)cc2c1 [3-bromoquinoline-6-carbaldehyde],2.08
2,"O=Cc1cc2cc(Br)cnc2c(F)c1F [3-bromo-7,8-difluoroquinoline-6-carbaldehyde]",2.71
